Assay results from patent US12472193B2, “Methods and compositions for treating and preventing respiratory related diseases and conditions with xylitol-headgroup lipid analogs” (National Jewish Health, priority 2017, dated 2025).
Entries after “also recorded” stand apart in the source; their conditions may differ.

How the values were obtained:
TLR 4 = target: T1, TLR 4 (Mus musculus, UniProt Q9JHF9+Q9QUK6); assay: LPS-induced TNF-α secretion by RAW264.7 cells (TLR 4 antagonism); format: cell-based; conditions: for antagonism of TLR 4 activation (TNFα secretion): 10 ng/mL LPS, 50 μg/mL lipid; for antagonism of TLR 4 activation (TNFα secretion) / IC50 values (inhibition of TNFα release) / IC50: 4 hours; for IC50 values (inhibition of TNFα release) / IC50: RAW264.7, 10 ng/mL LPS, lipid 100 to 0.008 μg/mL; for potency as TLR 4 antagonist compared to POPG: from dose response curves; for IC50: read-out: IC50 values (inhibition of TNFα release) (converted)
T1 construct: endogenous in cells; host or cells: RAW264.7 (ATCC)
T1 sequence (Q9QUK6 26-835): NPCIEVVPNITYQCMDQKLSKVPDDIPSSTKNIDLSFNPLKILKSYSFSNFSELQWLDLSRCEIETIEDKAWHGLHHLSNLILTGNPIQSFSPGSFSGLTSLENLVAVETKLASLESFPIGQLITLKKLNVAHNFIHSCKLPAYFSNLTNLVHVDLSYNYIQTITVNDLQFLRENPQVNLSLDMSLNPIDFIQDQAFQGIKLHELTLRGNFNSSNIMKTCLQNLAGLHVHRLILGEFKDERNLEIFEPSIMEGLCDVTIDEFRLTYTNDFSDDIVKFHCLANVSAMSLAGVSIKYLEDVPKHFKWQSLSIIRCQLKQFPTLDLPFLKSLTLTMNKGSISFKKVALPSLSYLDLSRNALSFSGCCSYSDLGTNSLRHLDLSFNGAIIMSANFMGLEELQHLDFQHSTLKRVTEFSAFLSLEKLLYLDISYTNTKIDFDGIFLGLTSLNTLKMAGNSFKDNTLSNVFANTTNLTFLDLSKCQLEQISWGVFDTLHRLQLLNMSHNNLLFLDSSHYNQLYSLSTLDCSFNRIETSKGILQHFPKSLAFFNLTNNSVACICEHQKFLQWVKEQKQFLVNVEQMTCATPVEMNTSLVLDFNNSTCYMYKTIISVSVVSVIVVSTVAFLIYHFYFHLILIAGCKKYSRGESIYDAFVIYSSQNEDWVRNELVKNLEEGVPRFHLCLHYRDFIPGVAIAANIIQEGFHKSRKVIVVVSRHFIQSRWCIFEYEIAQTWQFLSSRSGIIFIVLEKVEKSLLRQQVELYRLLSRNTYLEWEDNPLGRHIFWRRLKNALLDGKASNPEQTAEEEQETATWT
T1 sequence (Q9JHF9 19-160): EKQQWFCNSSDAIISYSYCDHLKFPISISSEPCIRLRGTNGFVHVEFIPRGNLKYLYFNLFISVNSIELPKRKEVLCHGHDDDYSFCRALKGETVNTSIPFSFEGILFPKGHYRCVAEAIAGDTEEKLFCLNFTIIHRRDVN
Method: The mouse macrophage cell line, RAW264.7, was obtained from ATCC and maintained in DMEM, supplemented with 10% bovine growth serum and 1× penicillin streptomycin. Cells were maintained at 37° C. with 5% carbon dioxide: 95% air atmosphere within the incubator. Experiments were completed in a 96-well plate where cells were seated at a density of 1×10^5 cells per well, 24 prior to stimulation with TLR agonists and antagonists. Lipids were dried under a stream of nitrogen, hydrated with phosphate-buffered saline (PBS) at 37° C. for one hour, followed by water bath sonication to create liposomes. Each condition for cell stimulation and antagonism was prepared in DMEM in a separate tube and consisted of: control, TLR agonist, TLR agonist+lipid, and lipid alone. 100 μL aliquots of medium+agonists+antagonists were added to each well and incubated at 37° C. for 4 hours. Subsequently, the media were collected, diluted and an enzyme-linked immunosorbent assay (ELISA) was performed to quantify TNFα release by cells.
The additional experiments disclosed herein, tested the initial activity of multiple POPG analogs. […] However, it was unknown how the combination of a xylitol head group along with varying hydrophobic chains affects this activity and mechanism of suppression. Varying the hydrophobic chains provides an approach for optimization of a PX lipid for maximum efficacy and uncovers important structure/function relationships. To test antagonist activity of PX lipids for preventing the activation of TLR 4, LPS was added to RAW264.7 cells at 10 ng/mL in the absence or presence of 50 μg/mL of lipid and incubated for 4 hours. After incubation, media were collected and secretion of the proinflammatory cytokine, TNFα, was quantified by ELISA as a downstream consequence of TLR 4 activation. Eight xylitol lipid analogs suppressed the activation of TLR 4 in the presence of LPS stimulus. […] Although inhibition of TLR 4 by DSPX was statistically different from LPS alone, its antagonism was marginal. DSPX is also a saturated lipid and the hydrophobic chains are 18 carbons in length. […] In these studies none of the lipids alone elicited significant amounts of proinflammatory cytokine release.
For quantitative comparisons between POPG analogs and POPG, concentration-dependent inhibition studies were performed and IC50 values were determined. RAW264.7 cells were stimulated with 10 ng/mL of LPS in combination with concentrations of lipid from 100 μg/mL to 0.008 μg/mL. Cells were stimulated for 4 hours followed by collection of media and quantification of TNFα released into the medium.

RSV = assay: Binding of RSV to solid phase phospholipid; parameters: species or system human RSV A2 strain; conditions: 0.625 nmol lipid, 37° C., 1 hour
Method: Lipids were dried under a stream of nitrogen and resuspended in 100% ethanol, and 0.625 nmol was added in a 40 μL volume to each well of a half-area, 96-well plate. The solvent was evaporated under warm air for 90 minutes. 120 μL of blocking solution (150 mM NaCl, 20 mM Tris pH 7, 5 mM CaCl2) containing 3% BSA w/v) was added to each well and incubated for 1 hour at room temperature. Wells were washed 3 times with (150 mM NaCl, 20 mM Tris pH 7, 5 mM CaCl2)) followed by the addition of 40 μL of serial dilutions of RSV (2.5×10^7, 1.25×10^7, 0.625×10^7, 0.3125×10^7, 0.15625×10^7 pfu/mL) in blocking solution to each well and the plate was incubated at 37° C. for 1 hour. The wells were washed 3 times and 40 μL of α-RSV:HRP antibody diluted 1:500 was added and incubated at 37° C. for 1 hour. After washing out the primary antibody, the peroxidase activity was detected with the substrate o-phenylenediamine and the absorbance read at 490 nm to detect degree of binding.
A quantitative plaque assay takes a week to develop without accounting for maintenance of cells. In order to determine the mechanism of antiviral action of PX analogs and explore a faster assay that could easily be mass-produced, lipids were assessed for their ability to bind RSV. A solid phase of 0.625 nmol of lipid was dried onto a 96-well plate. Binding of fluid-phase RSV to the lipids was assessed at viral concentrations of 8×105 to 2.5×10^7 pfu/mL, at 37° C. for 1 hour. Viral binding was detected with a primary anti-RSV antibody conjugated to HRP. The peroxidase reaction was developed with o-phenylenediamine and absorbance measurement at 490 nm.

With CCCCCCCCC=CCCCCCCCCOCC(COP(=O)(O)OCC(O)C(O)C(O)CO)OCCCCCCCCC=CCCCCCCCC (mixture of isomers) [18:1 DEPX, sn-1-O-octadecenyl, sn-2-O-octadecenyl sn-3 glycerol phosphoxylitol] the “antagonism of TLR 4 activation (TNFα secretion)” value (shortened to “antagonism of TLR 4 activation”) (TLR 4) was “effective antagonists; also recorded: inhibit”, the “IC50 values (inhibition of TNFα release)” value (TLR 4) was 0.33 µg/mL and the “potency as TLR 4 antagonist compared to POPG” value (“potency … compared to POPG” below) (TLR 4) was “more potent antagonists of TLR 4 activation than POPG”. For the same compound, the “binding of solid phase lipid to RSV” value (RSV) was “affinity comparable to that of POPG”.
For CCCCCCCCCCCCCC(=O)OC[C@H](COP(=O)(O)OCC(O)C(O)C(O)CO)OC(=O)CCCCCCCCCCCCC (mixture of isomers) [DMPX, sn-1-myristoyl, sn-2-myristoyl sn-3 glycerol phosphoxylitol], the “antagonism of TLR 4 activation” value (TLR 4) was “strong antagonistic activity”, the IC50 (TLR 4) was 33 µM and the “binding of solid phase lipid to RSV” value (RSV) was “bound strongly”.
With CCCCCC=CCC=CCCCCCCCC(=O)OCC(COP(=O)(O)OCC(O)C(O)C(O)CO)OC(=O)CCCCCCCC=CCC=CCCCCC (mixture of isomers) [18:2 DLPX, sn-1-linoleoyl, sn-2-linoleoyl sn-3 glycerol phosphoxylitol] the “IC50 values (inhibition of TNFα release)” value (TLR 4) was 0.28 µg/mL, the “potency … compared to POPG” value (TLR 4) was “more potent antagonists of TLR 4 activation than POPG” and the “binding of solid phase lipid to RSV” value (RSV) was “only bind weakly”.
With CCCCCCC=CCCCCCCCC(=O)OCC(COP(=O)(O)OCC(O)C(O)C(O)CO)OC(=O)CCCCCCCC=CCCCCCC (mixture of isomers) [16:1 DPPX, sn-1-palmitoleoyl, sn-2-palmitoleoyl sn-3 glycerol phosphoxylitol] the “IC50 values (inhibition of TNFα release)” value (TLR 4) was 1 µg/mL and the “binding of solid phase lipid to RSV” value (RSV) was “only bind weakly”.
CCCCCCCCC=CCCCCCCCC(=O)OCC(COP(=O)(O)OCC(O)C(O)C(O)CO)OC(=O)CCCCCCCC=CCCCCCCCC (mixture of isomers) [DOPX, sn-1-oleoyl, sn-2-oleoyl sn-3 glycerol phosphoxylitol] was tested, and the “antagonism of TLR 4 activation” value (TLR 4) was “inhibit”, the “IC50 values (inhibition of TNFα release)” value (TLR 4) was 0.36 µg/mL and the “potency … compared to POPG” value (TLR 4) was “more potent antagonists of TLR 4 activation than POPG”. For the same compound, the “binding of solid phase lipid to RSV” value (RSV) was “only bind weakly”.
CCCCCCCC/C=C\CCCCCCCC(=O)O[C@H](COC(=O)CCCCCCCCCCCCCCC)COP(=O)(O)OCC(O)C(O)C(O)CO (stereo partly drawn) [POPX, sn-1-palmitoyl, sn-2-oleoyly sn-3 glycerol phosphoxylitol] was tested, and the “IC50 values (inhibition of TNFα release)” value (TLR 4) was 0.52 µg/mL, the “potency … compared to POPG” value (TLR 4) was “more potent antagonists of TLR 4 activation than POPG” and the “binding of solid phase lipid to RSV” value (RSV) was “affinity comparable to that of POPG”.
CCCCCCCCCCCCCCCCCC(=O)OCC(COP(=O)(O)OCC(O)C(O)C(O)CO)OC(=O)CCCCCCCCCCCCCCCCC (stereo not drawn) [DSPX, sn-1-stearoyl, sn-2-stearoyl sn-3 glycerol phosphoxylitol] was tested, and the “antagonism of TLR 4 activation” value (TLR 4) was “marginal”, the “IC50 values (inhibition of TNFα release)” value (TLR 4) was “could not be determined” and the “binding of solid phase lipid to RSV” value (RSV) was “bound strongly”.
CCCCCCCCCCCCCCCC(=O)OCC(COP(=O)(O)OCC(O)C(O)C(O)CO)OC(=O)CCCCCCCCCCCCCCC (stereo not drawn) [DPPX, sn-1-palmitoyl, sn-2-palmitoyl sn-3 glycerol phosphoxylitol] was tested, and the “antagonism of TLR 4 activation” value (TLR 4) was “ineffective as an antagonist”, the “IC50 values (inhibition of TNFα release)” value (TLR 4) was “could not be determined” and the “binding of solid phase lipid to RSV” value (RSV) was “bound strongly”.
CCCCCCCC/C=C\CCCCCCCC(=O)O[C@H](COC(=O)CCCCCCCCCCCCCCC)COP(=O)([O-])OCC[N+](C)(C)C [POPC, 1-palmitoyl-2-oleoyl-sn-glycero-3-phosphocholine, reference compound] was tested, and the “antagonism of TLR 4 activation” value (TLR 4) was “does not significantly alter the activation of TLR4” and the “IC50 values (inhibition of TNFα release)” value (TLR 4) was “could not be determined”.
With CCCCCCCCCCCCCCOC[C@H](COP(=O)(O)OCC(O)C(O)C(O)CO)OCCCCCCCCCCCCCC (mixture of isomers) [14:0 DEPX, sn-1-O-myristyl, sn-2-O-myristyl sn-3 glycerol phosphoxylitol] the “antagonism of TLR 4 activation” value (TLR 4) was “effective antagonists”, the IC50 (TLR 4) was 4.08 µM and the “binding of solid phase lipid to RSV” value (RSV) was “bound to the RSV virus strongly”.
In the case of CCCCCCCC/C=C\CCCCCCCC(=O)O[C@H](COC(=O)CCCCCCCCCCCCCCC)COP(=O)(O)OCC(O)CO (stereo partly drawn) [POPG, palmitoyl-oleoyl-phosphatidylglycerol, reference compound], the “antagonism of TLR 4 activation” value (TLR 4) is reported as “inhibits activation of TLR4”, the “IC50 values (inhibition of TNFα release)” value (TLR 4) is reported as 3.33 µg/mL and the “inhibitory concentration reducing TNF-α production by 50% (IC50), as shown in FIG. 3” value (TLR 4; RAW264.7, 10 ng/ml LPS) is reported as ~2 µg/mL.
